# Results: US10426785B2, “C-19 steroids for inhibiting neovascularization” (priority 2014, dated 2019)
# Columns and labels:
# Assay type in all cases: cell-based, human
# HUVEC cells [1] = test: Tube migration (tube formation) assay of HUVEC cells on matrigel; settings: HUVEC on matrigel (7 mg/ml), 10 μM/L, FIG. 4
# Method: (§1) Briefly, human umbilical vein endothelial cells (in the following HUVEC) were freshly isolated out of human umbilical cords by methods known in the art and were used in the experiments from passage p4 up to passage p10 to prevent any artefacts originating from in vitro changes of the cells.
# (§2) In all experiments, the C-19 steroid compound 4-OHT was added to the cells in the indicated concentration in EGM-2 medium (Lonza) in order to avoid any artefacts originating from exogenous factors contained in the medium.
# After migration into the tissue of a scratch, HUVEC cells change their growth characteristics and form microvessels. This effect can be assessed microscopically.
# HUVEC cells were seeded on matrigel (7 mg/ml). Cell suspensions as well as gels containing 10 μM/L 4-OHT were added upon seeding, It was allowed to form branching points during adherence onto this surface mimicking basal membrane character. Tube formation was analyzed microscopically after 12 and 48 hours.
# When the human endothelial cells were subjected onto matrigel pads, branching points as one marker of tube formation are inhibited by 4-OHT as compared to untreated controls (red arrows).
# HUVEC cells [2] = test: WST-1 proliferation assay of HUVEC cells; settings: 1, 2 and 5 μM; all 3 HUVEC cell cultures; p<0.001 (t-test); FIG. 1A
# Method: All experiments were additionally run in several replicates (one HUVEC in different passages as well as different preparations.
# For determining the proliferation rates, WST-1 tests were performed. Essentially, 1000 HUVEC cells/well were seeded in a 96-well plate and exposed to the indicated concentrations of 4-OHT (also denoted by lab code CR 1447) for 5 days. Inhibition of proliferation was quantified by measuring the enzymatic cleavage of the tetrazolium salt WST-1 to formazan by cellular mitochondrial dehydrogenases as a readout for cell viability, wherein cell viability of treated cells is expressed as the percentage (%) of untreated controls containing only the solvent in appropriate concentrations.
# Cells were grown and subcultured in Endothelial Cell Growth medium (EGM) for 3 and 5 days, respectively.
# HUVEC cells [3] = test: Wound healing (scratch) assay of HUVEC cells; settings: 10 μM, FIG. 3
# Method: as §1, §2
# Another method for studying cell migration is the wound healing (scratch) assay. This assay resembles the events occurring in an acute wound healing process. By release of factors from the wound area endothelial cells migrate into the scratch area, which shall resemble the process of healing and closure of the wound by vascularization and later scar formation.
# In summary, HUVEC cells were seeded in a 12-well plate and allow to grow until reaching confluency. Subsequently, a scratch was set, thereby removing the cells within the scratch area. The cells were exposed to 10 μM of 4-OHT and the migration of endothelial cells into the scratch area was monitored microscopically using a schedule from 2 up to 48 hrs, depending on the individual experimental design. […]
# HUVEC cells [4] = test: Transwell migration assay of HUVEC cells with VEGF as attractant; settings: 48 hrs, VEGF as attractant in lower chamber, compared to control, FIG. 2B
# Method: as §1, §2
# A prerequisite of angiogenesis is the capability of endothelial cells to migrate into the tissue. This process is observed in wound healing and also in the process of tumor growth. Endothelial cells migrate into the tissue along a gradient of factors such as VEGF. This behavior can be studied in an in vitro model of migration using a transwell system, as e.g. apparent from FIG. 2A.
# For studying the migration of HUVEC cells using the transwell system with PET-membranes having a 3 μm pore size (24-wells w/o fibronectin-coating), HUVEC cells in different cell numbers were placed in the upper compartment, whereas the attractant was placed in the lower compartment. The number of cells on the attractant site of the membrane was compared with the number of cells visible in a control system (buffer control) and with the attractant (VEGF) in the presence of 4-OHT. […]
compound,measurement,setting,value
"C[C@]12CC[C@H]3[C@@H](CCC4=C(O)C(=O)CC[C@@]43C)[C@@H]1CC[C@@H]2O [4-OHT, 4-hydroxytestosterone]",tube formation of human endothelial cells,HUVEC cells [1]; analyzed after 12 and 48 hours,significantly inhibited
same,branching of the cells (branching points as marker of tube formation),HUVEC cells [1]; compared to untreated controls,markedly inhibited
same,growth inhibition (WST-1 cell viability vs untreated controls),HUVEC cells [2],highly significant
same,migration of HUVEC cells into the scratch area compared to untreated control cells,HUVEC cells [3]; after 24 h,clear reduction
same,endothelial cell migration (wound-healing / scratch assay),HUVEC cells [3]; monitored 2 up to 48 hrs,effectively inhibited
same,migration of cells into the membrane (transwell),HUVEC cells [4],significantly inhibits
